Values of other authors in patent US6395309B1, “Use of an extract of Alchemilla vulgaris to inhibit angiogenesis” (Weber & Weber GmbH & Co. KG, priority 1998, dated 2002).

Columns and labels:
[1] = clinically tested

| SMILES | histamine release from mast cells (mast cells) | toxic effects on clinical testing [1] |
| --- | --- | --- |
| O=c1c(O)c(-c2ccc(O)cc2)oc2cc(O)cc(O)c12 [Campherol] | inhibits histamine release |  |
| Cc1ccc(C(=O)Nc2ccc(S(=O)(=O)O)c3cc(S(=O)(=O)O)cc(S(=O)(=O)O)c23)cc1NC(=O)c1cccc(NC(=O)Nc2cccc(C(=O)Nc3cc(C(=O)Nc4ccc(S(=O)(=O)O)c5cc(S(=O)(=O)O)cc(S(=O)(=O)O)c45)ccc3C)c2)c1 [Sumarin] |  | therapeutic use is questionable because of toxic effects |
